Test systems include A498 renal; HCT-15 colon; HS 578T breast; K-562 leukemia; MCF7 breast; NCI-H226 lung; NCI-H23 lung; NCI/ADR-RES ovarian; RPMI-8226 leukemia; SNB-75 CNS.
Common to all, as to assay: DTP human tumour cell line panel, 48 h

Each structure is given as a SMILES string.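 Cells were grown in 96-well plates and exposed to each compound for 48 hours at five concentrations; endpoints were interpolated linearly between bracketing concentrations, or set to the highest concentration if not reached. Abbreviation: GI50, concentration required for 50% inhibition of growth. The concentration for full growth arrest is given as TGI.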

The GI50 is the concentration giving 50% growth inhibition. What is called TGI is the concentration at which net growth stops. Read a low TGI as more potent growth arrest.

With `COc1ccc(-c2cc(-c3ccc(O)cc3)nc3n[nH]c(N)c23)cc1`, the GI50 in the test on A498 renal is 16.8 µM; with HCT-15 colon, 25.9 µM; with HS 578T breast, 19.6 µM; in the test with K-562 leukemia, 35.3 µM; in the test on MCF7 breast it was 16.7 µM; with NCI-H226 lung it was 17.9 µM. For the same molecule, the GI50 in the test with NCI-H23 lung was 26.5 µM; with NCI/ADR-RES ovarian, 23.1 µM; with RPMI-8226 leukemia it was 21.1 µM; with SNB-75 CNS, 31.7 µM. Besides, the TGI is 36.6 µM in the test with A498 renal; 95 µM with HCT-15 colon; 43.3 µM with HS 578T breast; above 100 µM in the test on K-562 leukemia; 56.8 µM in the test on MCF7 breast; 49.5 µM in the test with NCI-H226 lung. For the same molecule, the TGI in the test with NCI-H23 lung is 68.3 µM; in the test on NCI/ADR-RES ovarian, 51.9 µM; with RPMI-8226 leukemia, 66.8 µM; in the test on SNB-75 CNS, above 100 µM.

Take `COc1ccc(-c2c(-c3cc(OC)c(OC)c(OC)c3)noc2N)cc1`: the GI50 with A498 renal is below 0.01 µM; in the test with HCT-15 colon, below 0.0115 µM; in the test with HS 578T breast, below 0.0104 µM; with K-562 leukemia, below 0.01 µM; in the test on MCF7 breast, below 0.01 µM; with NCI-H226 lung it was 0.0244 µM. In addition, the GI50 was 0.0198 µM in the test on NCI-H23 lung, below 0.01 µM in the test on NCI/ADR-RES ovarian, 0.0474 µM in the test on RPMI-8226 leukemia and below 0.01 µM in the test with SNB-75 CNS. In addition, the TGI was 4.37 µM in the test with A498 renal; above 100 µM with HCT-15 colon; above 75.9 µM in the test on HS 578T breast; above 100 µM with K-562 leukemia; 19.1 µM with MCF7 breast; above 100 µM with NCI-H226 lung. The TGI came out at 30 µM with NCI-H23 lung, 0.0226 µM in the test on NCI/ADR-RES ovarian, 5.96 µM in the test with RPMI-8226 leukemia and 94.2 µM with SNB-75 CNS.

For `COc1cnc2c(c1)C(=O)c1c-2n(CCCNC(C)C)c(=O)c2cc(F)ccc12`, the GI50 in the test with A498 renal is 0.199 µM; in the test on HCT-15 colon, 0.163 µM; in the test on HS 578T breast, 0.754 µM; in the test with K-562 leukemia it was 0.129 µM; with MCF7 breast, 0.0318 µM; in the test with NCI-H226 lung, 0.146 µM. In addition, the GI50 is 0.176 µM in the test on NCI-H23 lung, 0.234 µM in the test with NCI/ADR-RES ovarian, 0.154 µM in the test with RPMI-8226 leukemia and 0.219 µM with SNB-75 CNS. Also, the TGI is 0.811 µM in the test with A498 renal; 1.32 µM in the test with HCT-15 colon; 5.22 µM in the test on HS 578T breast; 1.72 µM with K-562 leukemia; 2.08 µM in the test on MCF7 breast; 0.325 µM with NCI-H226 lung. For the same molecule, the TGI in the test on NCI-H23 lung was 0.676 µM; in the test on NCI/ADR-RES ovarian, 1.81 µM; with RPMI-8226 leukemia, 0.951 µM; in the test on SNB-75 CNS, 1.39 µM.

For `CCCCCCCCCCCCOC1C(C(CC(=O)N2CCN(c3cccc(C(F)(F)F)c3)CC2)NS(=O)(=O)c2cc(Cl)cc(Cl)c2)OC2OC(C)(C)OC21` (stereo not given), the GI50 in the test with A498 renal, in the test with HCT-15 colon, in the test with HS 578T breast, in the test on K-562 leukemia, in the test on MCF7 breast and in the test with NCI-H226 lung was above 100 µM each time. Further, the GI50 in the test with NCI-H23 lung, with NCI/ADR-RES ovarian, in the test on RPMI-8226 leukemia and in the test with SNB-75 CNS was above 100 µM each time. The TGI in the test on A498 renal, in the test with HCT-15 colon, in the test with HS 578T breast, in the test on K-562 leukemia, with MCF7 breast and in the test on NCI-H226 lung was above 100 µM in each case. Besides, the TGI in the test on NCI-H23 lung, in the test on NCI/ADR-RES ovarian, with RPMI-8226 leukemia and in the test on SNB-75 CNS was above 100 µM throughout.

Regarding `CCS(=O)(=O)Nc1cccc(Nc2c3cccc(C)c3nc3c(C)cccc23)c1OC`, the GI50 in the test on A498 renal was 0.392 µM; with HCT-15 colon, 1.31 µM; in the test on HS 578T breast, 5.69 µM; in the test with K-562 leukemia, 1.55 µM; in the test on MCF7 breast it was 0.168 µM; with NCI-H226 lung, 0.627 µM. Also, the GI50 with NCI-H23 lung is 0.653 µM; in the test with NCI/ADR-RES ovarian, 3.23 µM; with RPMI-8226 leukemia, 0.573 µM; in the test with SNB-75 CNS, 1 µM. For the same molecule, the TGI in the test on A498 renal is 6.01 µM; in the test on HCT-15 colon, above 100 µM; in the test on HS 578T breast it was 44.8 µM; in the test with K-562 leukemia it was above 45.3 µM; with MCF7 breast, 49.5 µM; with NCI-H226 lung, 4.76 µM. The TGI in the test with NCI-H23 lung was above 100 µM; in the test on NCI/ADR-RES ovarian, 60.2 µM; in the test with RPMI-8226 leukemia, 12.5 µM; in the test with SNB-75 CNS it was 22 µM.

For `O=c1c2ccccc2c2ccccc2c(=O)n1Cc1ccc2c(c1)OCO2`, the TGI in the test with A498 renal was above 100 µM; in the test with HCT-15 colon, above 100 µM; with HS 578T breast, above 100 µM; with K-562 leukemia it was above 28 µM; with MCF7 breast, above 100 µM; in the test with NCI-H226 lung, above 100 µM. Further, the TGI in the test with NCI-H23 lung was above 71.8 µM; in the test with NCI/ADR-RES ovarian it was above 75.7 µM; in the test with RPMI-8226 leukemia it was above 67.4 µM; in the test with SNB-75 CNS, above 93.6 µM.

On to `COc1ccc(-c2nc(N3CCN(C(=O)C4CCCCC4)CC3)c3c4c(sc3n2)CCCC4)cc1`, for which the GI50 is 14.2 µM in the test on A498 renal; above 100 µM in the test on HCT-15 colon; 24.7 µM in the test with HS 578T breast; above 100 µM with K-562 leukemia; 82.9 µM in the test with MCF7 breast; 41 µM in the test on NCI-H226 lung. Further, the GI50 in the test on NCI-H23 lung is 63.1 µM; with NCI/ADR-RES ovarian it was above 100 µM; in the test with RPMI-8226 leukemia it was 22 µM; in the test with SNB-75 CNS it was 14.1 µM. Moreover, the TGI was 81.3 µM in the test with A498 renal; above 100 µM in the test with HCT-15 colon; above 100 µM in the test with HS 578T breast; above 100 µM in the test with K-562 leukemia; above 100 µM with MCF7 breast; above 100 µM in the test on NCI-H226 lung. Besides, the TGI is above 100 µM in the test on NCI-H23 lung, above 100 µM with NCI/ADR-RES ovarian, above 100 µM with RPMI-8226 leukemia and 33.9 µM in the test with SNB-75 CNS.

For `COc1ccc(OC)c(-c2cc(=O)c3c(OC)c(OC)c(OC)c(OC)c3o2)c1`, the TGI is above 100 µM with A498 renal; 77.5 µM with HCT-15 colon; above 100 µM with HS 578T breast; above 100 µM in the test with K-562 leukemia; 55.5 µM in the test on MCF7 breast; 77.8 µM in the test with NCI-H226 lung. Moreover, the TGI with NCI-H23 lung is above 100 µM; in the test on NCI/ADR-RES ovarian, 82.8 µM; in the test with RPMI-8226 leukemia it was 76 µM; in the test with SNB-75 CNS it was above 100 µM.

For the origin of these results see PubChem BioAssay (NCI).
